{"source": "patent US11767352B2", "about": "“Histone anti-cancer vaccines” (DEUTSCHES KREBSFORSCHUNGSZENTRUM, priority 2015, dated 2023)", "key": {"A2.DR1 mice [1]": {"test_system": "A2.DR1 mice", "test": "Intracellular flow cytometry of splenocyte IFNγ responses after vaccination of A2.DR1 mice", "type": "in vivo", "conditions": "for IFNγ+ CD8+ T-cell response (intracellular flow cytometry): vaccination with peptide in Montanide, re-stimulation with K27M26-35 or K27 wt26-35, gated on CD45+ CD3+ CD8+ cells", "source_text": "(§1) Numbers of spots to MOG35-55 as negative control were subtracted. Mean+/−s.e.m. of n=4 mice per group and representative ELISpots are shown. **p<0.01. (B/C): H3.3-peptide libraries are used to assess MHC binding epitopes in silico: MHC peptide binding predictions for H3.3 K27M (red)- and K27 wt (blue)-containing 10-mer peptides to HLA-A*02:01 using NetMHC algorithm (B) and MHC peptide binding analysis for H3.3 K27M26-35 (red) or K27 wt26-35 (blue) depending on MHC-class-I haplotype (C). Peptides with logscore affinity >0.4 are defined as potential binders. […] Re-stimulation with the vehicle DMSO served as control; gated on CD45+ CD3+ CD8+ cells.\n(§2) As antigen presentation and induction of an effective immune response is critically dependent on MHC haplotype, binding affinities of K27M26-35 to the most frequent class I haplotypes were analyzed. […] Thus, anti-tumor efficacy of H3.3 K27M peptide vaccination was further investigated in a syngeneic HLA-A*02 tumor model."}, "A2.DR1 mice [2]": {"test_system": "A2.DR1 mice", "test": "Flow cytometry detection of peptide-specific CD8 T-cells with HLA-A2 dextramer after vaccination of A2.DR1 mice", "type": "in vivo", "conditions": "splenocytes after vaccination in Montanide, gated on CD45+ CD3+ cells", "source_text": "as §1, §2"}}}
{"sequence": "RMSAPSTGGV (listed as Homo sapiens) [K27M26-35, peptide corresponding to amino acids 26-35 of K27M Histone H3.3]", "values": [{"measurement": "immune response, HLA-A*02 restricted (summary statement)", "setting": "A2.DR1 mice [1]; according to the examples", "value": "surprisingly strong immune response"}, {"measurement": "IFNγ+ CD8+ T-cell response (intracellular flow cytometry)", "setting": "A2.DR1 mice [1]", "value": "induced IFNγ^+CD8^+-driven mutation-specific cytotoxic T-cell responses"}, {"measurement": "IFNγ+ CD8+ T-cell response (intracellular flow cytometry)", "setting": "A2.DR1 mice [1]; listed as H3.3 K27M26-35", "value": "induces a mutation-specific CD8-driven T-cell response"}, {"measurement": "peptide-specific CD8+ T-cells detected with HLA-A2 dextramer", "setting": "A2.DR1 mice [2]", "value": "could be detected directly"}, {"measurement": "peptide-specific CD8+ T-cells detected with HLA-A2 dextramer", "setting": "A2.DR1 mice [2]; listed as H3.3 K27M26-35", "value": "CD8-positive T-cells are detected with HLA-A2 multimers"}]}
